Test results from patent US20230304010A1, “COMPOSITIONS AND METHODS FOR TREATING VIRAL INFECTIONS” (priority 2020, published 2023).
Ends that are not written are not given here.

Assays:
[1] = molecular target: ACE2:SARS-CoV-2 Spike interaction (UniProt P0DTC2+Q9BYF1); assay: biochemical; type: binding; conditions: for IC50: ACE2:SARS-CoV-2 Spike IC50
[2] = Nanoparticle formation of peptides with ADGN-106: mean size and polydispersity (Zetasizer); type: physicochemical; conditions: 25° C.; for Mean Size (nm): peptide/ADGN-106 complexes; for PI: polydispersity index of peptide/ADGN-106 complexes
Text: We then tested the ability of the different peptides to form nanoparticle organization in the presence of ADGN-106 or ADGN-100 peptide. […] Peptides were complexed with 5 or 10 molar excess of ADGN-106.

in vitro = conditions: uninfected Vero E6 cells
[3] = molecular target: SARS-CoV-2 Spike: ACE2 interaction (UniProt P0DTC2+Q9BYF1); assay: biochemical; type: binding; conditions: for IC50: SARS-CoV-2 Spike:ACE2 IC50
[4] = tested on: SARS-CoV-2 Nucleocapsid gene; type: cell-based

Sequence of ACE2:SARS-CoV-2 Spike interaction (Q9BYF1 18-740, one chain of several): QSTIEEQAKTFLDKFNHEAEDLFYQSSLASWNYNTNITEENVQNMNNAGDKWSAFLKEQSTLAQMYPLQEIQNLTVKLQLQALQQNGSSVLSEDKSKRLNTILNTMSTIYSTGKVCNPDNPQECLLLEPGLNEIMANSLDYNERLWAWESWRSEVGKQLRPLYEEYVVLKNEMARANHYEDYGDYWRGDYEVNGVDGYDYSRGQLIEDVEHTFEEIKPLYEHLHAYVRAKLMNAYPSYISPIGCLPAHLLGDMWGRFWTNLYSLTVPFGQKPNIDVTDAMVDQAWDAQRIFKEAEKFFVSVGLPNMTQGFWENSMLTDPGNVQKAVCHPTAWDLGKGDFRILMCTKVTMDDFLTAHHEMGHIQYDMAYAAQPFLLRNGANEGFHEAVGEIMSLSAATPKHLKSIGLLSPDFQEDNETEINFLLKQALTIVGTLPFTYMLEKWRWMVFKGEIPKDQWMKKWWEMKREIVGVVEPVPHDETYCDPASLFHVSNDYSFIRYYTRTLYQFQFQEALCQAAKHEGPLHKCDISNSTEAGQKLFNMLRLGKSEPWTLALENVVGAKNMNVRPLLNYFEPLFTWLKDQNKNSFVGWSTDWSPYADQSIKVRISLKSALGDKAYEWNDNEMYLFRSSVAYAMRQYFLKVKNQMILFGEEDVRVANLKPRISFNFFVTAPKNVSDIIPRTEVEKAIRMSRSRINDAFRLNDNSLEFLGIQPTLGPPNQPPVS
Sequence of SARS-CoV-2 Spike: ACE2 interaction (Q9BYF1 18-740, one chain of several): as above

Row | Molecule | Mean Size (nm) [2] [nm] | PI [2] | viability at 0.5 µM (in vitro) [%] | IC50 [4] [nM] | IC50 [1] [nM] | IC50 [3] [nM] | further results
1 | Ac-KTFLDKFNHEAEDLFPGPKWSAFLKEQSTLAQMYG [Seq28] | 34.6 ± 7 | 0.18 | 78 |  |  |  | Residual Infection (%) (SARS-CoV-2): 10%; fold stronger anti-SARS-CoV-2 activity than hydroxychloroquine sulfate (SARS-CoV-2): 250 fold; increase of potency by pre-incubation with SARS CoV-2 prior infection (SARS-CoV-2): 2 factor; inhibition of viral infection (SARS-CoV-2): exhibit inhibition of viral infection; folds more potent than SBP-1-ADGN-106/ADGN-106 complex [1]: 6 folds; folds more potent than SBP-1 coupled to ADGN-106 [1]: 6 folds; folds more potent than SBP-1 peptide/ADGN-106 complex [1]: 40 folds; folds more potent than free SBP-1 [1]: 15 folds; CC50 (in vitro): 290000 ± 51000 nM; folds more potent than SBP-1-ADGN-106/ADGN-106 complex [3]: 4 folds; folds more potent than SBP-1 coupled to ADGN-106 [3]: 3.5 folds; folds more potent than SBP-1 peptide/ADGN-106 complex [3]: 35 folds; folds more potent than free SBP-1 [3]: 7 folds
2 | GCAGACGTGGTCCAGAACAAA (chemistry not given here) [DIVC-7] |  |  |  | 147 |  |  | 
3 | GACCAGGAACTAATCAGACAA (chemistry not given here) [DIVC-2] |  |  |  | > 500 |  |  | 
4 | GACTTCCCTATGGTGCTAACA (chemistry not given here) [DIVC-4] |  |  |  | 254 |  |  | 
5 | GCAACTGAGGGAGCCTTGAAT (chemistry not given here) [DIVC-1] |  |  |  | > 500 |  |  | 
6 | CC(=O)N[C@@H](Cc1ccc(O)cc1)C(=O)N[C@@H](Cc1ccccc1)C(=O)N1CCC[C@H]1C(=O)N[C@@H](CC(C)C)C(=O)N[C@@H](CCC(N)=O)C(=O)N[C@@H](CO)C(=O)N[C@@H](Cc1ccc(O)cc1)C(=O)NCC(=O)N[C@@H](Cc1ccccc1)C(=O)N[C@@H](CCC(N)=O)C(=O)N1CCC[C@H]1C(=O)N[C@H](C(=O)N[C@@H](CC(N)=O)C(=O)NCC(=O)N[C@H](C(=O)NCC(=O)N[C@@H](Cc1ccc(O)cc1)C(=O)N[C@@H](CCC(N)=O)C(=O)NCCCCC(=O)N[C@@H](CC(C)C)C(=O)N[C@@H](Cc1c[nH]c2ccccc12)C(=O)N[C@@H](CCCNC(=N)N)C(=O)N[C@@H](C)C(=O)N[C@@H](CC(C)C)C(=O)N[C@@H](Cc1c[nH]c2ccccc12)C(=O)N[C@@H](CCCNC(=N)N)C(=O)N[C@@H](CC(C)C)C(=O)N[C@@H](Cc1c[nH]c2ccccc12)C(=O)N[C@@H](CCCNC(=N)N)C(=O)N[C@@H](CO)C(=O)N[C@@H](CC(C)C)C(=O)N[C@@H](Cc1c[nH]c2ccccc12)C(=O)N[C@@H](CCCNC(=N)N)C(=O)N[C@@H](CC(C)C)C(=O)N[C@@H](CC(C)C)C(=O)N[C@@H](Cc1c[nH]c2ccccc12)C(=O)N[C@@H](CCCCN)C(N)=O)C(C)C)[C@@H](C)O [Seq19] | 37.2 ± 5 | 0.24 | 87 |  | 349 ± 26 | 90.6 | Residual Infection (%) (SARS-CoV-2): 90%; blocked ACE2:SARS-CoV-2 Spike interaction [1]: blocked; blocked SARS-CoV-2 Spike: ACE2 interaction [3]: blocked
7 | CC(=O)N[C@@H](CCCCN)C(=O)N[C@H](C(=O)N[C@@H](Cc1ccccc1)C(=O)N[C@@H](CC(C)C)C(=O)N[C@@H](CC(=O)O)C(=O)N[C@@H](CCCCN)C(=O)N[C@@H](Cc1ccccc1)C(=O)N[C@@H](CC(N)=O)C(=O)N[C@@H](Cc1c[nH]cn1)C(=O)N[C@@H](CCC(=O)O)C(=O)N[C@@H](C)C(=O)N[C@@H](CCC(=O)O)C(=O)N[C@@H](CC(=O)O)C(=O)N[C@@H](CC(C)C)C(=O)N[C@@H](Cc1ccccc1)C(=O)NCCCCCC(=O)N[C@@H](CC(C)C)C(=O)N[C@@H](Cc1c[nH]c2ccccc12)C(=O)N[C@@H](CCCNC(=N)N)C(=O)N[C@@H](C)C(=O)N[C@@H](CC(C)C)C(=O)N[C@@H](Cc1c[nH]c2ccccc12)C(=O)N[C@@H](CCCNC(=N)N)C(=O)N[C@@H](CC(C)C)C(=O)N[C@@H](Cc1c[nH]c2ccccc12)C(=O)N[C@@H](CCCNC(=N)N)C(=O)N[C@@H](CO)C(=O)N[C@@H](CC(C)C)C(=O)N[C@@H](Cc1c[nH]c2ccccc12)C(=O)N[C@@H](CCCNC(=N)N)C(=O)N[C@@H](CC(C)C)C(=O)N[C@@H](CC(C)C)C(=O)N[C@@H](Cc1c[nH]c2ccccc12)C(=O)N[C@@H](CCCCN)C(N)=O)[C@@H](C)O [Seq34] |  |  | 98 |  | > 1000 | > 1000 | Residual Infection (%) (SARS-CoV-2): 100%
8 | GGCTGATGAAACTCAAGCCTT (chemistry not given here) [DIVC-5] |  |  |  | > 500 |  |  | 
9 | CSCC[C@H](NC(=O)[C@H](CCC(N)=O)NC(=O)[C@H](C)NC(=O)[C@H](CC(C)C)NC(=O)[C@@H](NC(=O)[C@H](CO)NC(=O)[C@H](CCC(N)=O)NC(=O)[C@H](CCC(=O)O)NC(=O)[C@H](CCCCN)NC(=O)[C@H](CC(C)C)NC(=O)[C@H](Cc1ccccc1)NC(=O)[C@H](C)NC(=O)[C@H](CO)NC(=O)[C@H](Cc1c[nH]c2ccccc12)NC(=O)[C@H](CCCCN)NC(=O)[C@@H]1CCCN1C(=O)[C@H](Cc1ccccc1)NC(=O)[C@H](CC(C)C)NC(=O)[C@H](CC(=O)O)NC(=O)[C@H](CCC(=O)O)NC(=O)[C@H](C)NC(=O)[C@H](CCC(=O)O)NC(=O)[C@H](Cc1c[nH]cn1)NC(=O)[C@H](CC(N)=O)NC(=O)[C@H](Cc1ccccc1)NC(=O)[C@H](CCCCN)NC(=O)[C@H](CC(=O)O)NC(=O)[C@H](CC(C)C)NC(=O)[C@H](Cc1ccccc1)NC(=O)[C@@H](NC(=O)[C@H](CCCCN)NC(=O)[C@H](C)NC(=O)[C@H](CCC(N)=O)NC(=O)[C@H](CCC(=O)O)NC(C)=O)[C@@H](C)O)[C@@H](C)O)C(=O)N[C@@H](Cc1ccc(O)cc1)C(=O)NCC(=O)NCCCCCC(=O)N[C@@H](CC(C)C)C(=O)N[C@@H](Cc1c[nH]c2ccccc12)C(=O)N[C@@H](CCCNC(=N)N)C(=O)N[C@@H](C)C(=O)N[C@@H](CC(C)C)C(=O)N[C@@H](Cc1c[nH]c2ccccc12)C(=O)N[C@@H](CCCNC(=N)N)C(=O)N[C@@H](CC(C)C)C(=O)N[C@@H](Cc1c[nH]c2ccccc12)C(=O)N[C@@H](CCCNC(=N)N)C(=O)N[C@@H](CO)C(=O)N[C@@H](CC(C)C)C(=O)N[C@@H](Cc1c[nH]c2ccccc12)C(=O)N[C@@H](CCCNC(=N)N)C(=O)N[C@@H](CC(C)C)C(=O)N[C@@H](CC(C)C)C(=O)N[C@@H](Cc1c[nH]c2ccccc12)C(=O)N[C@@H](CCCCN)C(N)=O [Seq39] | 48.5 ± 5 | 0.29 |  |  | 68.4 ± 10 | 55.2 | increase of potency/efficiency by covalent coupling to ADGN peptide [1]: 1.4 folds
10 | CSCC[C@H](NC(=O)[C@H](CC(N)=O)NC(C)=O)C(=O)N[C@H](C(=O)N[C@@H](CCC(N)=O)C(=O)NCC(=O)N[C@@H](Cc1ccccc1)C(=O)N[C@@H](Cc1c[nH]c2ccccc12)C(=O)N[C@@H](CCC(=O)O)C(=O)N[C@@H](CC(N)=O)C(=O)N1CCC[C@H]1C(=O)NCC(=O)NCC(=O)N1CCC[C@H]1C(=O)N[C@H](C(=O)N[C@@H](C)C(=O)N[C@@H](Cc1c[nH]c2ccccc12)C(=O)N[C@@H](CC(=O)O)C(=O)N[C@@H](CC(C)C)C(=O)NCC(=O)N[C@@H](CCCCN)C(=O)NCCCCCC(=O)N[C@@H](CC(C)C)C(=O)N[C@@H](Cc1c[nH]c2ccccc12)C(=O)N[C@@H](CCCNC(=N)N)C(=O)N[C@@H](C)C(=O)N[C@@H](CC(C)C)C(=O)N[C@@H](Cc1c[nH]c2ccccc12)C(=O)N[C@@H](CCCNC(=N)N)C(=O)N[C@@H](CC(C)C)C(=O)N[C@@H](Cc1c[nH]c2ccccc12)C(=O)N[C@@H](CCCNC(=N)N)C(=O)N[C@@H](CO)C(=O)N[C@@H](CC(C)C)C(=O)N[C@@H](Cc1c[nH]c2ccccc12)C(=O)N[C@@H](CCCNC(=N)N)C(=O)N[C@@H](CC(C)C)C(=O)N[C@@H](CC(C)C)C(=O)N[C@@H](Cc1c[nH]c2ccccc12)C(=O)N[C@@H](CCCCN)C(N)=O)[C@@H](C)O)[C@@H](C)O [Seq38] | 39 ± 10 | 0.25 | 68 |  | 103 ± 17 | 214 | Residual Infection (%) (SARS-CoV-2): 80%
11 | CSCC[C@H](NC(=O)[C@H](CO)NC(=O)[C@H](CC(N)=O)NC(=O)[C@H](CCC(=O)O)NC(=O)[C@H](Cc1c[nH]c2ccccc12)NC(=O)[C@H](Cc1ccccc1)NC(=O)CNC(=O)[C@H](CCC(N)=O)NC(=O)[C@@H](NC(=O)[C@H](CCSC)NC(=O)[C@H](CC(N)=O)NC(C)=O)[C@@H](C)O)C(=O)N[C@@H](CC(C)C)C(=O)N[C@H](C(=O)N[C@@H](CC(=O)O)C(=O)NCCCCCC(=O)N[C@@H](CC(C)C)C(=O)N[C@@H](Cc1c[nH]c2ccccc12)C(=O)N[C@@H](CCCNC(=N)N)C(=O)N[C@@H](C)C(=O)N[C@@H](CC(C)C)C(=O)N[C@@H](Cc1c[nH]c2ccccc12)C(=O)N[C@@H](CCCNC(=N)N)C(=O)N[C@@H](CC(C)C)C(=O)N[C@@H](Cc1c[nH]c2ccccc12)C(=O)N[C@@H](CCCNC(=N)N)C(=O)N[C@@H](CO)C(=O)N[C@@H](CC(C)C)C(=O)N[C@@H](Cc1c[nH]c2ccccc12)C(=O)N[C@@H](CCCNC(=N)N)C(=O)N[C@@H](CC(C)C)C(=O)N[C@@H](CC(C)C)C(=O)N[C@@H](Cc1c[nH]c2ccccc12)C(=O)N[C@@H](CCCCN)C(N)=O)[C@@H](C)O [Seq37] | 59.2 ± 14 | 0.24 |  |  | 645 | > 1000 | 
12 | CC(C)C[C@H](NC(=O)[C@H](C)NC(=O)[C@H](CCCNC(=N)N)NC(=O)[C@H](Cc1c[nH]c2ccccc12)NC(=O)[C@@H](N)CC(C)C)C(=O)N[C@@H](Cc1c[nH]c2ccccc12)C(=O)N[C@@H](CCCNC(=N)N)C(=O)N[C@@H](CC(C)C)C(=O)N[C@@H](Cc1c[nH]c2ccccc12)C(=O)N[C@@H](CCCNC(=N)N)C(=O)N[C@@H](CO)C(=O)N[C@@H](CC(C)C)C(=O)N[C@@H](Cc1c[nH]c2ccccc12)C(=O)N[C@@H](CCCNC(=N)N)C(=O)N[C@@H](CC(C)C)C(=O)N[C@@H](CC(C)C)C(=O)N[C@@H](Cc1c[nH]c2ccccc12)C(=O)N[C@@H](CCCCN)C(=O)O [ADGN-106, reference compound] |  |  | 84 |  |  |  | CC50 (in vitro): 356000 ± 64000 nM
13 | AAGCATATTGACGCATACAAA (chemistry not given here) [DIVC-9] |  |  |  | 394 |  |  | 
14 | GCAACAATCCATGAGCAGTGC (chemistry not given here) [DIVC-10] |  |  |  | 28.4 |  |  | 
